Assays:
[1] = Long-term animal toxicity studies of TV-5010; set-up: species or system rats and monkeys; conditions: in vivo
[2] = tested on: THP-1 human monocyte cell line; experiment: Pathway enrichment (DAVID) in THP-1 study: Copaxone vs mannitol and Probioglat vs GA; format: cell-based; conditions: Copaxone vs mannitol, 6 hours
[3] = format: in vivo, human
Text: The Teva Patient Support Program in Mexico has an extensive database. Given that patients can switch between branded and purported generic GA, all patients are kept within the database and are provided with patient support services.
The number of relapses reported by patients in Teva's Patient Support Program on a monthly basis during the years 2012 and 2013 i. It is again clear that when Copaxone alone was in use (i.e. throughout 2012) the overall, as well as per-month number of relapses was lower than that reported when Probioglat was present in the market (i.e. throughout 2013).
These findings have identified significant differences that warrant further investigation, especially in light of the observed clinical effects of Probioglat's introduction. The Teva Patient Support Program in Mexico records numbers of adverse events, including during the years 2012 and 2013 (Table 31; FIG. 46), for which a similar number of patients were tracked (1618 patients in 2012; 1552 in 2013). Probioglat was first introduced in January 2013; subsequently, each time a patient's prescription was filled, it could be with either Probioglat or GA. […] The gene-expression differences observed herein warrant careful investigation, through studies comparing GA to candidate generics in meaningful settings, most comprehensively including clinical trials.

## glatiramer acetate [Copaxone®]
[1]
  Toxicity in long-term animal studies: never seen
[2]; top downregulated genes
  Fold Enrichment: GO: 0003006~reproductive developmental process: 6.25
  Fold Enrichment: GO: 0007275~multicellular organismal development: 2.168
  Fold Enrichment: GO: 0009653~anatomical structure morphogenesis: 2.643
  Fold Enrichment: GO: 0030154~cell differentiation: 2.556
  Fold Enrichment: GO: 0032502~developmental process: 1.984
  Fold Enrichment: GO: 0048513~organ development: 2.76
  Fold Enrichment: GO: 0048731~system development: 2.396
  Fold Enrichment: GO: 0048856~anatomical structure development: 2.165
  Fold Enrichment: GO: 0048869~cellular developmental process: 2.411
[2]; top upregulated genes
  Fold Enrichment: G0: 0001568~blood vessel development: 3.472
  Fold Enrichment: G0: 0002819~regulation of adaptive immune response: 7.067
  Fold Enrichment: G0: 0030154~cell differentiation: 1.794
  Fold Enrichment: GO: 0000267~cell fraction: 1.993
  Fold Enrichment: GO: 0001501~skeletal system development: 3.144
  Fold Enrichment: GO: 0001525~angiogenesis: 4.224
  Fold Enrichment: GO: 0001608~nucleotide receptor activity, G-protein coupled: 13.87
  Fold Enrichment: GO: 0001614~purinergic nucleotide receptor: 12.55
  Fold Enrichment: GO: 001816~cytokine production: 7.526
  Fold Enrichment: GO: 0001871~pattern binding: 5.244
  Fold Enrichment: GO: 0001944~vasculature development: 3.428
  Fold Enrichment: GO: 0002376~immune system process: 2.852
  Fold Enrichment: GO: 0002682~regulation of immune system process: 3.763
  Fold Enrichment: GO: 0002683~negative regulation of immune: 5.682
  Fold Enrichment: GO: 0002684~positive regulation of immune system process: 4.025
  Fold Enrichment: GO: 0002694~regulation of leukocyte activation: 4.14
  Fold Enrichment: GO: 0002697~regulation of immune effector process: 6.009
  Fold Enrichment: GO: 0002698~negative regulation of immune effector process: 15.05
  Fold Enrichment: GO: 0002698~positive regulation of response to external stimulus: 6.536
  Fold Enrichment: GO: 0002703~regulation of leukocyte mediated immunity: 7.43
  Fold Enrichment: GO: 0002822~regulation of adaptive immune response based on somatic recombination of immune receptors built from immunoglobulin superfamily domains: 7.244
  Fold Enrichment: GO: 0004222~metalloendopeptidase activity: 6.148
  Fold Enrichment: GO: 0004871~signal transducer activity: 2.537
  Fold Enrichment: GO: 0004872~receptor activity: 2.976
  Fold Enrichment: GO: 0004888~transmembrane receptor activity: 3.768
  Fold Enrichment: GO: 0004930~G-protein coupled receptor activity: 4.293
  Fold Enrichment: GO: 0005576~extracellular region: 2.824
  Fold Enrichment: GO: 0005578~proteinaceous extracellular matrix: 5.31
  Fold Enrichment: GO: 0005615~extracellular space: 3.371
  Fold Enrichment: GO: 0005624~membrane fraction: 2.128
  Fold Enrichment: GO: 0005626~insoluble friction: 2.12
  Fold Enrichment: GO: 0005886~plasma membrane: 2.42
  Fold Enrichment: GO: 0005887~integral to plasma membrane: 3.25
  Fold Enrichment: GO: 0006928~cell motion: 2.469
  Fold Enrichment: GO: 0006935~chemotaxis: 4.651
  Fold Enrichment: GO: 0006950~response to stress: 1.897
  Fold Enrichment: GO: 0006952~defense response: 3.418
  Fold Enrichment: GO: 0006954~inflammatory response: 4.475
  Fold Enrichment: GO: 0006955~immune response: 3.57
  Fold Enrichment: GO: 0007155~cell adhesion: 2.948
  Fold Enrichment: GO: 0007165~signal transduction: 1.567
  Fold Enrichment: GO: 0007166~cell surface receptor linked signal transduction: 2.246
  Fold Enrichment: GO: 0007186~G-protein coupled receptor protein signaling pathway: 2.726
  Fold Enrichment: GO: 0007275~multicellular organismal development: 1.742
  Fold Enrichment: GO: 0007610~behavior: 2.76
  Fold Enrichment: GO: 0007626~locomotory behavior: 4.081
  Fold Enrichment: GO: 0009605~response to external stimulus: 3.127
  Fold Enrichment: GO: 0009607~response to biotic stimulus: 3.376
  Fold Enrichment: GO: 0009611~response to wounding: 4.097
  Fold Enrichment: GO: 0009617~response to bacterium: 4.268
  Fold Enrichment: GO: 0009897~external side of plasma membrane: 6.497
  Fold Enrichment: GO: 0009986~cell surface: 4.067
  Fold Enrichment: GO: 0010033~response to organic substance: 2.03
  Fold Enrichment: GO: 0016020~membrane: 1.538
  Fold Enrichment: GO: 0016021~integral to membrane: 1.676
  Fold Enrichment: GO: 0016477~cell migration: 3.203
  Fold Enrichment: GO: 0016502~nucleotide receptor activity: 12.55
  Fold Enrichment: GO: 0019955~cytokine binding: 6.971
  Fold Enrichment: GO: 0022610~biological adhesion: 2.94
  Fold Enrichment: GO: 0030247~polysaccharide binding: 5.244
  Fold Enrichment: GO: 0030574~collagen cataboltc process: 20.7
  Fold Enrichment: GO: 0031012~extracellular matrix: 5.017
  Fold Enrichment: GO: 0031224~intrinsic to membrane: 1.684
  Fold Enrichment: GO: 0031226~intrinsic to plasma membrane: 3.268
  Fold Enrichment: GO: 0031347~regulation of defense response: 5.519
  Fold Enrichment: GO: 0031349~positive regulation of defense response: 6.758
  Fold Enrichment: GO: 0031960~response to corticosteroid stimulus: 6.623
  Fold Enrichment: GO: 0032101~regulation of response to external stimulus: 6.288
  Fold Enrichment: GO: 0032496~response to lipopolysaccharide: 5.682
  Fold Enrichment: GO: 0032502~developmental process: 1.643
  Fold Enrichment: GO: 0032879~regulation of localization: 2.359
  Fold Enrichment: GO: 0040011~locomotion: 3.21
  Fold Enrichment: GO: 0042221~response to chemical stimulus: 1.879
  Fold Enrichment: GO: 0042330~taxis: 4.651
  Fold Enrichment: GO: 0044243~multicellular organismal catabolic process: 20.7
  Fold Enrichment: GO: 0044421~extracellular region part: 3.61
  Fold Enrichment: GO: 0044425~membrane part: 1.539
  Fold Enrichment: GO: 0044459~plasma membrane part: 2.404
  Fold Enrichment: GO: 0045028~purinergic nudeotide receptor activity, G-protein coupled: 13.87
  Fold Enrichment: GO: 0045595~regulation of cell differentiation: 2.517
  Fold Enrichment: GO: 0046903~secretion: 3.164
  Fold Enrichment: GO: 0048513~organ development: 1.846
  Fold Enrichment: GO: 0048514~blood vessel morphogenesis: 3.398
  Fold Enrichment: GO: 0048518~positive regulation of biological process: 1.559
  Fold Enrichment: GO: 0048519~negative regulation of biological process: 1.629
  Fold Enrichment: GO: 0048545~response to steroid hormone stimulus: 4.216
  Fold Enrichment: GO: 0048583~regulation of response to stimulus: 3.613
  Fold Enrichment: GO: 0048584~positive regulation of response to stimulus: 3.79
  Fold Enrichment: GO: 0048731~system development: 1.918
  Fold Enrichment: GO: 0048856~anatomical structure development: 1.792
  Fold Enrichment: GO: 0048869~cellular developments process: 1.736
  Fold Enrichment: GO: 0048870~cell motility: 2.99
  Fold Enrichment: GO: 0050727~regulation of inflammatory response: 8.87
  Fold Enrichment: GO: 0050729~positive regulation of inflammatory response: 11.5
  Fold Enrichment: GO: 0050776~regulation of immune response: 4.293
  Fold Enrichment: GO: 0050793~regulation of developmental process: 3.161
  Fold Enrichment: GO: 0050864~regulation of B cell activation: 8.565
  Fold Enrichment: GO: 0050865~regulation of cell activation: 4.296
  Fold Enrichment: GO: 0050867~positive regulation of cell activation: 4.664
  Fold Enrichment: GO: 0050896~response to stimulus: 1.852
  Fold Enrichment: GO: 0051239~regulation of multicellular organismal process: 2.792
  Fold Enrichment: GO: 0051241~negative regulation of multicellular organismal: 4.902
  Fold Enrichment: GO: 0051270~regulation of cell motion: 3.643
  Fold Enrichment: GO: 0051384~response to glucocorticoid stimulus: 7.046
  Fold Enrichment: GO: 0051674~localization of cell: 2.99
  Fold Enrichment: GO: 0051704~multi-organism process: 2.223
  Fold Enrichment: GO: 0051707~response to other organism: 4.426
  Fold Enrichment: GO: 0060089~molecular transducer activity: 2.537
  Fold Enrichment: GO: 0065007~biological regulation: 1.236
  Fold Enrichment: GO: 0065008~regulation of biological quality: 2.067
  Fold Enrichment: GO: 0080134~regulation of response to stress: 3.7
  Fold Enrichment: GO: 00322501~multicellular organismal process: 1.77
  Fold Enrichment: GO: 00550878~regulation of body fluid levels: 4.87
  Fold Enrichment: hsa04060:Cytokine-cytokine receptor interaction: 3.911
[3]; 2012, only branded GA marketed, 1618 patients
  Numbers of relapses reported: 8
[3]; human, in vivo
  Adverse Event Rate (per month): 10.4 per month
  Numbers of adverse events reported: 125

Reference: US20170003277A1 (priority 2015, published 2017)
